From US6767569B1, “Surface decontamination of cooked sausage and processed meat and poultry products” (priority 1999, dated 2004)

Experiments:
[1] = test system: Listeria monocytogenes ATCC. 43256; assay: D-values for Listeria monocytogenes in peracetic acid solutions (suspension test); format: cell-based
Experimental: Peracetic acid solutions of 500, 1000, and 2000 mg/L (ppm) were prepared as for Example 1, using deionized water. To 100 mL samples of the solutions, 1.7×10^6 Listeria monocytogenes ATCC. 43256 per mL were added and mixed. The samples were maintained at a preselected temperature ([…], ˜15° C., or ˜22° C.). At 10, 20, 30, 40, and 50 seconds contact time, 1 mL was removed, neutralized, and the Listeria monocytogenes organisms remaining were determined by plating on TSA and incubation. […] D-values (time required to kill one log of the test microorganism—in this case, a reduction in microorganisms from 1.7×10^6 initially to 1.7×10^5) were determined, as shown in TABLE 4. D-values below the detection limit of the test are shown as <2 seconds.

E. coli = format: cell-based; conditions: 5 seconds spray
Experimental: (§1) Samples of pork skin were inoculated separately with either 5 strains of E. coli or 5 strains of Salmonella spp. (mixtures X and Y, see Example 4). Five different treatments were evaluated for effectiveness in reducing bacteria on pork skin. […] EMB agar was used for E. coli and XLD for Salmonella, and a nutrient agar was also used for E. coli and Salmonella for total count.
(§2) The five strains of generic E. coli and five strains of Salmonella spp. were cultured and transferred individually into 100 mL of tryptic soy broth (TSB, DIFCO, Detroit, Mich.) with 1% dextrose (Sigma, St. Louis, Mo.) in duplicate. Dextrose was added to induce acid tolerance in the microbial cell. The cultures were incubated at 35° C. for 24 hrs. to obtain ca. 10^9 colony forming units (CFU)/mL. The cells were harvested by the centrifuging each culture at 10,000 Xg force for 10 min. at 4° C., (Beckman J2-HS centrifuge, Beckman Instruments, Inc., Palo Alto, Calif.). After centrifugation, the supernatant was poured off, and cells remained in pellet form. Each pellet was individually re-suspended with 50 mL of 0.1% peptonewater (DIFCO, Detroit, Mich.). All five strains of E. coli or Salmonella spp. inoculum were transferred to separate HDPE plastic spray bottles (Sprayco™, Detroit, Mich.) to be used in the mist inoculation of pork skin samples.
(§3) For E. coli, PCA and EMB media were used, and for Salmonella, PCA and XLD media were used. Bacto Plate Count Agar (PCA) was used in this study as a standard methods medium for the enumeration of bacteria before and after treatments. Spiral (sl), or spread (sd) plate technique were used for viable cell counts. Duplicate plates were performed for each treatment.
(§4) Fresh pork skins taken from the loin region were cut to rectangles of 19.35 cm^2. A hole was bored into the top of each sample so that each sample could be suspended from an individual hook in the spray cabinet. Samples were laid out onto trays wrapped in butcher paper. Each tray was individually spray inoculated with E. coli or Salmonella spp. in a Plexiglas spray chamber to ca. 8.4 mL of inoculum. After the inoculation, each tray was placed under a laminar flow hood for 1 hr. to allow the surface to dry and for the attachment of the bacteria to the pork skin.
(§5) The peracetic acid (PAA) used in this study was a 35.0% PAA buffered, liquid solution prepared from a STERIS 20™ two compartment cup (a dry powder containing anticorrosive additives, buffers, sequestrants, and surfactants). The peracetic acid determined before each use of the treatment using a calibration curve.
(§6) Five inoculated samples were individually placed on stainless steel hooks in. a spray cabinet at ambient temperature.
(§7) The samples were exposed to a continuous spray of the selected treatment for 5 seconds at a spray pressure of 16-18 psi.
(§8) The treated samples were placed into individual stomacher bags containing 30 mL of 0.1% peptone water (DIFCO, Detroit, Mich.) and stomached for 2 min. Serial dilutions of 0, 10^−2, and 10^−4 were spiral plated (WASP spiral plater, Bioscience International, Rockville, Md.) on PCA (DIFCO, Detroit, Mich.) and EMB (DIFCO, Detroit, Mich.) for E. coli and on plate count agar (PCA, DIFCO, Detroit, Mich.) and xylose lysine decarboxylase agar (XLD, DIFCO, Detroit, Mich.) for Salmonella spp. Samples were also spread plated on PCA and EMB agar for E. coli or PCA and XLD agar for Salmonella spp, using […] for a total of 1 mL on 4 plates. This was to ensure a countable plate. Plates were inverted and incubated at 35° C. for 24 hrs. (48 hrs. for Salmonella spp.).

Salmonella spp. = format: cell-based; conditions: pork skin; 5 seconds spray; 2% lactic acid, 2% acetic acid, 0.1% peracetic acid; after 48 hours
Experimental: as §1, §2, §3, §4, §5, §6, §7, §8

[2] = Stability of peracetic acid solutions; format: physicochemical
Experimental: Peracetic acid solutions were prepared in deionized water as for Example 2 to nominal concentrations of 1000 and 2000 mg/L. Actual peracetic acid concentrations were measured at 0 and 30 minutes at around 25° C. and 50° C.

Listeria = assay: Further tests: peracetic acid sprayed over the frankfurters; format: cell-based, Listeria monocytogenes; conditions: 2000 ppm sprayed over the frankfurters for 30 seconds to one minute
microorganism = assay: Contacting the surfaces of the food product with peracetic acid solution; format: cell-based; conditions: 1,000 ppm peracetic acid solution for 12 seconds at 8 °C
From the text: The decontaminant solution preferably contains from about 500 to about 4,000 ppm of peracetic acid. The optimal concentration depends an the length of time to which the food products are exposed to the decontaminant solution and on the temperature of the decontaminant solution. […] For ensuring complete elimination of resistant microorganisms, such as Listeria, longer times and/or higher peracetic acid concentrations are preferred. Preferred peracetic acid concentrations are from about 1000 to about 2,000 ppm for contact times of 30 seconds to 1 minute to ensure complete kill of Listeria and other undesirable microorganisms at temperatures of from about 8-20° C. Microbiological analysis procedures are carried out periodically on samples of the treated frankfurters to ensure that the conditions used are maintaining a 100% kill of Listeria or other selected microorganisms.

[3] = pork skin, 2% lactic acid, 2% acetic acid, 0.1% peracetic acid, after 24 hours
[4] = nominal 1000 mg/L, 26-29 °C, pH 2.7
[5] = nominal 1000 mg/L, 50 °C, pH 2.7
[6] = nominal 2000 mg/L, 26-29 °C, pH 2.6
[7] = nominal 2000 mg/L, 50 °C, pH 2.6

With CC(=O)OO [peracetic acid] the “D-value” ([1]; 500 mg/L, 8.3-8.5 °C, pH 3.7-3.7) was 2 s, the “D-value” ([1]; 500 mg/L, 14.7-15.0 °C, pH 3.4-3.6) was <2 s and the “D-value” ([1]; 500 mg/L, 22.7-22.8 °C, pH 3.4-3.6) was <2 s. The “D-value” ([1]; 1000 mg/L, 8.1-8.1 °C, pH 3.2-3.4) was <2 s, the “D-value” ([1]; 1000 mg/L, 15.0-15.2 °C, pH 3.2-3.4) was <2 s and the “D-value” ([1]; 2000 mg/L, 8.1-8.4 °C, pH 3.0-3.1) was <2 s. The “D-value” ([1]; 2000 mg/L, temperature range printed 3.0-3.1 °C, pH 3.0-3.1) was <2 s, the “Listeria monocytogenes organisms remaining” value ([1]; 500, 1000, 2000 mg/L, 10-50 seconds contact, except the sample at 500 mg/L, ~8 °C, 10 seconds) was “destroyed in all cases” and the “reduction of E. coli on pork skin” value (E. coli; peracetic acid 0.1%) was 3 log/cm^2. For the same compound, the “Total Count (E. coli) on EMB” value (E. coli; [3]) was 3.04 Log CFU/cm^2, the “Total Count (E. coli) on PCA” value (E. coli; [3]) was 3.28 Log CFU/cm^2 and the “Total Count (Salmonella) on PCA” value (Salmonella spp.) was 5.34 Log CFU/cm^2. For the same compound, the “Total Count (Salmonella) on XLD” value (Salmonella spp.) was 3.83 Log CFU/cm^2, the “stability of the solutions over the 30 minute period” value ([2]; 1000 and 2000 mg/L nominal, around 25 °C and 50 °C) was “relatively stable” and the “Concentration at 0 mins” value [2, 4] was 1347 µg/mL. For the same compound, the “Concentration at 30 mins” value [2, 4] was 1355 µg/mL, the “Concentration at 0 mins” value [2, 5] was 1310 µg/mL and the “Concentration at 30 mins” value [2, 5] was 1284 µg/mL. For the same compound, the “Concentration at 0 mins” value [2, 6] was 2016 µg/mL, the “Concentration at 30 mins” value [2, 6] was 2017 µg/mL and the “Concentration at 0 mins” value [2, 7] was 1937 µg/mL. The “Concentration at 30 mins” value [2, 7] was 1959 µg/mL, the kill level (Listeria) was “complete kill” and the “reduction in the number of microorganism” value (microorganism) was “six log reduction”.
